# Legend:
# [1] = target: Phosphodiesterase aus B16 Melanomgewebe von Mäusen; experiment: PDE inhibition (PDE assay), enzyme from B16 melanoma tissue, 3H-cAMP substrate; type: biochemical; details: PDE from mouse B16 melanoma tissue; 1 µmol/l 3H-cAMP as substrate; linear regression; read-out: PDE-Hemmung (IC50 in µmol/l) B16-Tumorzellen
# Description: (§1) Beispielsweise wurden die Verbindungen • A = 4,7-Dimorpholino-6-phenyl-2-piperazino-pteridin, • B = 4-Morpholino-7-(1-oxidothiomorpholino)-2-piperazino-6-phenyl-pteridin, • C = 7-Benzylamino-6-phenyl-2-piperazino-4-thiomorpholino- pteridin, • D = 7-Dimethylamino-6-phenyl-2-piperazino-4-pyrrolidino- pteridin und • E = 7-Benzylamino-4-(N-methyl-2'-hydroxyethylamino)-2-piperazino-pteridin auf ihre Hemmwirkung auf die Phosphodiesterase (PDE) von Tumorzellen und von Humanthrombozyten in vitro in Anlehnung an die von Pöch et al. beschriebenen Methode wie folgt untersucht (siehe Naunyn-Schmiedebergs Arch. Pharmak.
# (§2) Die Phosphodiesterase wurde aus B16 Melanomgewebe von Mäusen durch Zentrifugation des Gewebehomogenates bei 5.000 x g (15 min. 4°C) gewonnen. Die Homogenisation der Gewebe erfolgte durch wiederholtes Frieren/Auftauen und Homogenisation nach Potter-Elvehjem bzw. durch Ultraschall. Der die PDE enthaltende Homogenat-Überstand wurde portioniert und bei -25°C tiefgefroren.
# (§3) Die Bestimmung der PDE-Hemmung durch die Prüfsubstanzen erfolgte mit 1 µmol/l ^3H-cAMP als Substrat. Die PDE-Hemmung wurde durch Messung des Abbaus des eingesetzten Substrats ^3H-cAMP zu ^3H-AMP im Vergleich zur Kontrolle ohne Prüfsubstanz erfaßt.
# (§4) Das gebildete ^3H-AMP wurde durch eine Zinksulfat-Bariumhydroxid-Fällung vom verbliebenen ^3H-CAMP abgetrennt.
# Mäusen = experiment: Orientating acute toxicity in mice, single oral dose; type: in vivo; details: observation time 14 days; for Orientierende aktute Toxizität (Tiere gestorben): single oral dose of 250 mg, animals dead of animals treated; for Orientierende aktute Toxizität: single oral dose
# Description: Die orientierende akute Toxizität der zu untersuchenden Substanzen wurde orientierend an Gruppen von je […] Mäusen nach oraler Gabe einer Einzeldosis bestimmt (Beobachtungszeit: 14 Tage) : […]
# [2] = system: Phosphodiesterase (PDE) von Humanthrombozyten; experiment: PDE inhibition (PDE assay), enzyme from human platelets, 3H-cAMP substrate; type: biochemical; details: 1 µmol/l 3H-cAMP as substrate, linear regression, read-out: PDE-Hemmung (IC50 in µmol/l) Thrombozyten
# Description: as §1, §2
# Die Gewinnung der Phosphordiesterase aus Humanthrombozyten erfolgte in gleicher Weise.
# as §3, §4
SMILES,IC50 [1] [µmol/L],Orientierende aktute Toxizität (Tiere gestorben) (Mäusen) [von 5],Orientierende aktute Toxizität (Mäusen) [mg],IC50 [2] [µmol/L]
"c1ccc(-c2nc3c(N4CCOCC4)nc(N4CCNCC4)nc3nc2N2CCOCC2)cc1 [A, 4,7-Dimorpholino-6-phenyl-2-piperazino-pteridin]",4.3,0,> 250,0.54
"CN(C)c1nc2nc(N3CCNCC3)nc(N3CCCC3)c2nc1-c1ccccc1 [D, 7-Dimethylamino-6-phenyl-2-piperazino-4-pyrrolidino-pteridin]",0.78,0,> 250,3.6
"[O-][S+]1CCN(c2nc3nc(N4CCNCC4)nc(N4CCOCC4)c3nc2-c2ccccc2)CC1 [B, 4-Morpholino-7-(1-oxidothiomorpholino)-2-piperazino-6-phenyl-pteridin]",3.1,,,2.2
"c1ccc(CNc2nc3nc(N4CCNCC4)nc(N4CCSCC4)c3nc2-c2ccccc2)cc1 [C, 7-Benzylamino-6-phenyl-2-piperazino-4-thiomorpholino-pteridin]",0.096,0,> 250,0.5
"CN(CCO)c1nc(N2CCNCC2)nc2nc(NCc3ccccc3)cnc12 [E, 7-Benzylamino-4-(N-methyl-2'-hydroxyethylamino)-2-piperazino-pteridin]",8.3,0,> 250,3.7

# Reference: EP0185259A2, “Pteridines, process for their preparation, and their use as intermediates or as medicaments” (Dr. Karl Thomae GmbH, priority 1984, dated 1986)
